Results from US12404304B1, “Telomerase reverse transcriptase (TERT) expression enhancing compounds and methods for using the same” (Sierra Sciences, LLC, priority 2007, dated 2025).

Experiments:
viable cells in culture = experiment: Cell viability assay (CellTiter-Glo Luminescent Cell Viability Assay, ATP quantitation, percent of vehicle control)
Description: Cell viability is determined using a homogeneous method, such as CellTiter-Glo® Luminescent Cell Viability Assay (Promega Corporation, Madison, WI.) to determine the number of viable cells in culture These assays are based on quantitation of the ATP present, which signals the presence of metabolically active cells. Luminescent values of compound treated cells are compared to that of cells treated with vehicle alone to determine the average cell viability as a percent of control.

[1] = system: human TERT expression (hTERT mRNA); experiment: Quantitative real-time RT-PCR of hTERT mRNA expression (Ct, transcripts) in compound-treated cells; format: cell-based; settings: quantitative real-time RT-PCR
Text: Telomerase is a ribonucleoprotein complex composed of the catalytic protein subunit (human telomerase reverse transcriptase or hTERT) and the RNA template. hTERT expression level can be measured by PCR.
Briefly, amplification of the target sequence is monitored per PCR cycle by detecting the fluorescence signal emitted by an internal probe that is degraded by the 5′ nuclease activity of the Taq polymerase. The emission signal accumulates in each sample, and the Ct required to reach a given fluorescence threshold is determined (Ct stands for Cycle Threshold and is a measure of the number of PCR cycles that are required to amplify a target—thus, a lower Ct score means that there is more abundant hTERT mRNA). Thus, the Ct value of a sample inversely correlates to the quantity of the starting cDNA which correlates to the number of mRNA transcripts. Using the cDNA of known quantity, a standard curve can be generated and used to determine the starting amount of mRNA transcripts based on the […] of each sample.
Quantitative real-time PCR can be done on cDNA from test compound-treated and nontreated cells by use of a ABI Prism 7900 Sequence Detection System (PE Applied Biosystems, Foster City, CA) following the Assays-on-Demand protocol (PE Applied Biosystems, Foster City, CA). Quantitative data can be analyzed using the Sequence Detection System software version 2.1 (PE Applied Biosystems).
The following compounds were tested in assays designed to identify compounds that enhance human TERT expression.

Row | SMILES | Average Cell Viability after 24 Hours (% DMSO) (viable cells in culture) | Average Number of hTERT Transcripts [1]
1 | CCCCc1c(C)[nH]c2c(-c3ccc(Cl)cc3)c(C)nn2c1=O [compound 1167] | 97.27 | 66.71
2 | Cc1ccc(SCc2cc(=O)n3nc(C)c(-c4ccc(F)cc4)c3[nH]2)cc1 [compound 1168] | 63.67 | 79.80
3 | Cc1nn2c(=O)cc(-c3ccc(F)cc3)[nH]c2c1-c1ccccc1 [compound 1169] | 56.42 | 122.92
4 | COc1ccc2sc(Nc3nc(C)n(-c4ccccc4)c(=O)n3)nc2c1 [compound 1170] | 36.74 | 102.53
5 | O=C(Nc1nc(-c2ccccn2)cs1)c1ccc(Br)s1 [compound 1171] | 56.61 | 22.66
6 | COc1cc(OC)cc(C(=O)Nc2nc(-c3ccccn3)cs2)c1 [compound 1172] | 88.81 | 28.72
7 | O=C(Nc1nc(-c2ccccn2)cs1)c1cccc(S(=O)(=O)N2CCOCC2)c1 [compound 1173] | 86.99 | 43.63
8 | O=C(Nc1nc(-c2ccccn2)cs1)c1cccc(S(=O)(=O)N2CCCCC2)c1 [compound 1174] | 73.06 | 12.12
9 | CCCN(CCC)S(=O)(=O)c1cccc(C(=O)Nc2nc(-c3ccccn3)cs2)c1 [compound 1175] | 74.43 | 29.54
10 | COc1ccc(-c2nnc(NC(=O)c3ccc(Cl)cc3)o2)cc1 [compound 1178] | 83.07 | 63.78
11 | O=C(NCCCn1ccnc1)c1cc(-c2ccc(F)cc2)on1 [compound 1179] | 97.79 | 3.70
12 | CCCNC(=O)c1cc(-c2ccc(F)cc2)on1 [compound 1180] | 81.47 | 56.10
13 | CCCCNC(=O)c1cc(-c2ccc(F)cc2)on1 [compound 1181] | 85.44 | 24.74
14 | C=CCNC(=O)c1cc(-c2ccc(F)cc2)on1 [compound 1182] | 87.44 | 19.03
15 | O=C(NCCCN1CCOCC1)c1cc(-c2cccs2)on1 [compound 1183] | 88.76 | 37.61
16 | O=C(NC1CCCC1)c1cc(-c2cccs2)on1 [compound 1184] | 88.36 | 73.49
17 | O=C(NCCc1ccccc1)c1cc(-c2cccs2)on1 [compound 1185] | 80.02 | 20.89
18 | O=C(NCCCn1ccnc1)c1cc(-c2cccs2)on1 [compound 1186] | 94.79 | 367.36
19 | O=C(NCCN1CCOCC1)c1cc(-c2cccs2)on1 [compound 1187] | 95.94 | 61.19
20 | CCCNC(=O)c1cc(-c2cccs2)on1 [compound 1188, 5-thiophen-2-yl-isoxazole-3-carboxylic acid propylamide] | 88.71 | 295.07
21 | CC(C)CNC(=O)c1cc(-c2cccs2)on1 [compound 1189] | 83.26 | 73.15
22 | CCCNC(=O)c1cc(-c2ccco2)on1 [compound 1190] | 96.27 | 41.79
23 | CCCCNC(=O)c1cc(-c2ccco2)on1 [compound 1191] | 95.11 | 164.47
24 | C=CCNC(=O)c1cc(-c2cccs2)on1 [compound 1192] | 95.64 | 279.74
25 | COc1ccc(-c2n[nH]c3c2C(c2ccc(O)cc2)N(c2ccc(Br)cc2)C3=O)cc1 (stereo not drawn) [compound 1193] | 22.74 | 3.56
26 | CCOC(=O)c1ccc(N2C(=O)c3[nH]nc(-c4ccccc4)c3C2c2ccccc2OC)cc1 (stereo not drawn) [compound 1194] | 76.71 | 6.20

Row | SMILES | Average Cell Viability after 24 Hours (% DMSO) (viable cells in culture) | Average Number of hTERT Transcripts [1]
27 | Cc1cccnc1Nc1nc(-c2ccccn2)cs1 [compound 1195] | 95.66 | 220.50
28 | COCCNC(=O)c1cc(-c2cccs2)on1 [compound 1196] | 98.07 | 163.15
29 | CCCCNC(=O)c1cc(-c2cccs2)on1 [compound 1197] | 88.24 | 168.54
30 | CCOC(=O)c1ccc(N2C(=O)c3[nH]nc(-c4ccco4)c3C2c2ccc(O)cc2)cc1 (stereo not drawn) [compound 1198] | 64.75 | 104.02
31 | CCOC(=O)c1ccc(N2C(=O)c3[nH]nc(-c4cccs4)c3C2c2ccc(O)c(OCC)c2)cc1 (stereo not drawn) [compound 1199] | 57.55 | 110.78
32 | CCCc1nnc(NC(=O)CSc2nnc(-c3cccs3)o2)s1 [compound 1200] | 74.03 | 198.48
33 | O=C(Nc1nc(-c2ccccn2)cs1)c1nc2ccccc2s1 [compound 1201] | 74.59 | 49.55
34 | O=C(CS(=O)(=O)c1ccccc1)Nc1nc(-c2ccccn2)cs1 [compound 1202] | 72.91 | 141.08
35 | O=C(CS(=O)(=O)c1ccc(F)cc1)Nc1nc(-c2ccccn2)cs1 [compound 1203] | 73.09 | 119.23
36 | O=C(Nc1nc(-c2ccccn2)cs1)C1COc2ccccc2O1 (stereo not drawn) [compound 1204] | 55.98 | 76.87
37 | O=C(Nc1nc(-c2ccccn2)cs1)c1ccc2ncsc2c1 [compound 1205] | 86.42 | 114.55
38 | O=C(NCC1CCCO1)c1cc(-c2cccs2)on1 (stereo not drawn) [compound 1206] | 83.74 | 80.15
39 | CCNC(=O)c1cc(-c2cccs2)on1 [compound 1207] | 87.06 | 275.25
40 | O=C(NC1CC1)c1cc(-c2cccs2)on1 [compound 1208] | 70.93 | 380.09
41 | C=CCN1C(C(=O)c2ccccc2)=C(OC(=O)c2ccc(Cl)cc2)c2ccccc2S1(=O)=O [compound 1209] | 91.26 | 21.73
42 | O=C(CN1C(C(=O)c2ccccc2)=C(O)c2ccccc2S1(=O)=O)c1ccc(Br)cc1 [compound 1210] | 62.70 | 26.56
43 | O=C(CN1C(C(=O)c2ccccc2)=C(N2CCCCC2)c2ccccc2S1(=O)=O)c1ccccc1 [compound 1211] | 81.77 | 52.31
44 | O=C(CN1C(C(=O)c2ccccc2)=C(O)c2ccccc2S1(=O)=O)c1ccccc1 [compound 1212] | 80.54 | 38.44
45 | CCCN1C(C(=O)c2ccccc2)=C(OC(=O)CC)c2ccccc2S1(=O)=O [compound 1213] | 69.85 | 5.90
46 | CCCCN1C(C(=O)c2ccccc2)=C(OC(C)=O)c2ccccc2S1(=O)=O [compound 1214] | 55.08 | 32.75
47 | CCCCN1C(C(=O)c2ccccc2)=C(OC(=O)CC)c2ccccc2S1(=O)=O [compound 1215] | 52.19 | 7.76
48 | CCCCN1C(C(=O)c2ccccc2)=C(OC(=O)c2ccco2)c2ccccc2S1(=O)=O [compound 1216] | 42.91 | 5.19
49 | CCCCN1C(C(=O)c2ccccc2)=C(OC(=O)C(C)C)c2ccccc2S1(=O)=O [compound 1217] | 45.00 | 10.04
50 | CCCCC(=O)OC1=C(C(=O)c2ccccc2)N(CC)S(=O)(=O)c2ccccc21 [compound 1218] | 82.36 | 3.35
51 | Cc1nn(C)cc1CNC(=O)C1C2CCC(O2)C1C(=O)O (stereo not drawn) [compound 1220] | 48.07 | 6.37
